Results from patent US10597388B2, “Pyridazinone herbicides” (FMC CORPORATION, priority 2014, dated 2020).

Tests used:
Assay type in all cases: in vivo
[1] = test system: crabgrass, Brazilian (Brazilian crabgrass, Digitaria horizontalis); experiment: Test E greenhouse herbicide test, pre- and postemergence
Outline: (§1)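 Herbicidal effect was judged by eye relative to untreated plants 14 to 21 d after spraying, using 0 for no effect and 100 for complete control. Preemergence sprays went onto freshly seeded silt loam; postemergence sprays onto 2–18 cm seedlings.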

kochia (Kochia scoparia) = experiment: as above
Outline: as §1

[2] = test system: surinam grass (Brachiaria decumbens); experiment: as above; details: Preemergence
Outline: as §1

[3] = test system: momingglory (Ipomoea coccinea); experiment: as above; details: Preemergence
Outline: as §1

[4] = test system: Italian ryegrass (Lolium multiflorum); experiment: as above
Outline: as §1

[5] = test system: crabgrass, large (large crabgrass, Digitaria sanguinalis); experiment: as above; details: Preemergence
Outline: as §1

[6] = test system: nightshade (eastern black nightshade, Solanum ptycanthum); experiment: as above; details: Preemergence
Outline: as §1

[7] = test system: buckwheat, wild (wild buckwheat, Polygonum convolvulus); experiment: Test D controlled growth environment herbicide test, pre- and postemergence; details: for Buckwheat, Wild plant response rating / Plant response rating (scale of 0 to 100), Buckwheat, Wild: 31 g ai/ha
Outline: (§2)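 Pre-emergence: seeds sown in silt loam soil were sprayed with compound in a non-phytotoxic solvent mix containing surfactant. Post-emergence: plants at 2 to 18 cm (1- to 4-leaf stage) in peat moss/vermiculite medium got the same formulation. Visual 0–100 rating versus controls after 14 to 21 d.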

[8] = test system: ryegrass, Italian (Italian ryegrass, Lolium multiflorum); experiment: as above
Outline: as §2

[9] = test system: mustard, wild (wild mustard, Sinapis arvensis); experiment: as above
Outline: as §2

[10] = 62 g ai/ha, Postemergence, scale 0 to 100 (0 no effect, 100 complete control)
[11] = 62 g ai/ha, Preemergence, scale 0 to 100 (0 no effect, 100 complete control)
[12] = 125 g ai/ha, Postemergence, scale 0 to 100 (0 no effect, 100 complete control)
[13] = 125 g ai/ha, Preemergence, scale 0 to 100 (0 no effect, 100 complete control)
[14] = Postemergence, 16 g ai/ha, visual, scale 0 no effect to 100 complete control
[15] = Postemergence, 31 g ai/ha, visual, scale 0 no effect to 100 complete control
[16] = Preemergence, 31 g ai/ha, scale 0 to 100, 0 no effect, 100 complete control
[17] = Preemergence, 16 g ai/ha, scale 0 to 100, 0 no effect, 100 complete control
[18] = 62 g ai/ha, scale 0 to 100 (0 no effect, 100 complete control)
[19] = 125 g ai/ha, scale 0 to 100 (0 no effect, 100 complete control)
[20] = 16 g ai/ha, scale 0 to 100, 0 no effect, 100 complete control
[21] = 31 g ai/ha, scale 0 to 100, 0 no effect, 100 complete control
[22] = Postemergence, scale 0 to 100 (0 no effect, 100 complete control)
[23] = Postemergence, 125 g ai/ha, visual rating on scale 0 (no effect) to 100 (complete control), 14 to 21 d
[24] = Postemergence, 250 g ai/ha, scale 0 to 100 (0 no effect, 100 complete control)
[25] = Preemergence, 62 g ai/ha, scale 0 to 100 (0 no effect, 100 complete control)
[26] = Preemergence, 125 g ai/ha, scale 0 to 100 (0 no effect, 100 complete control)
[27] = Preemergence, 250 g ai/ha, scale 0 to 100, 0 no effect, 100 complete control
[28] = postemergence, 62 g ai/ha, scale 0 to 100, 0 no effect, 100 complete control
[29] = Postemergence, 31 g ai/ha, scale 0 to 100 (0 no effect, 100 complete control)
[30] = 250 g ai/ha, Postemergence, scale 0 to 100 (0 no effect, 100 complete control)
[31] = Preemergence, 250 g ai/ha, visual, scale 0 no effect to 100 complete control
[32] = 250 g ai/ha, visual, scale 0 no effect to 100 complete control

CCCC(=O)Oc1c(C)nn(C)c(=O)c1-c1c(C)sc2ccc(C)cc12 [Compound 105]
Plant response rating, Crabgrass, Brazil [1, 10]: 40 | Plant response rating, Crabgrass, Brazil [1, 11]: 35 | Plant response rating, Crabgrass, Brazil [1, 12]: 50 | Plant response rating, Crabgrass, Brazil [1, 13]: 75 | Plant response rating, Crabgrass, Brazil [1, 14]: 5 | Plant response rating, Crabgrass, Brazil [1, 15]: 20 | Plant response rating, Crabgrass, Brazil [1, 16]: 0 | Plant response rating, Kochia (kochia (Kochia scoparia); [10]): 90 | Plant response rating, Kochia (kochia (Kochia scoparia); [11]): 35 | Plant response rating, Kochia (kochia (Kochia scoparia); [12]): 100 | Plant response rating, Kochia (kochia (Kochia scoparia); [13]): 100 | Plant response rating, Kochia (kochia (Kochia scoparia); [14]): 80 | Plant response rating, Kochia (kochia (Kochia scoparia); [15]): 80 | Plant response rating, Kochia (kochia (Kochia scoparia); [17]): 0 | Plant response rating, Kochia (kochia (Kochia scoparia); [16]): 0 | Plant response rating, Surinam Grass [2, 18]: 10 | Plant response rating, Surinam Grass [2, 19]: 70 | Plant response rating, Surinam Grass [2, 20]: 0 | Plant response rating, Surinam Grass [2, 21]: 0 | Plant response rating, Morningglory [3, 18]: 70 | Plant response rating, Morningglory [3, 19]: 60 | Plant response rating, Morningglory [3, 20]: 40 | Plant response rating, Morningglory [3, 21]: 20 | Plant response rating, Ryegrass, Italian [4, 10]: 70 | Plant response rating, Ryegrass, Italian [4, 11]: 95 | Plant response rating, Ryegrass, Italian [4, 12]: 80 | Plant response rating, Ryegrass, Italian [4, 13]: 100 | Plant response rating, Ryegrass, Italian [4, 14]: 30 | Plant response rating, Ryegrass, Italian [4, 15]: 50 | Plant response rating, Ryegrass, Italian [4, 17]: 75 | Plant response rating, Ryegrass, Italian [4, 16]: 90 | Plant response rating, Crabgrass, Large [5, 18]: 50 | Plant response rating, Crabgrass, Large [5, 19]: 75 | Plant response rating, Crabgrass, Large [5, 20]: 0 | Plant response rating, Crabgrass, Large [5, 21]: 0 | Plant response rating, Nightshade [6, 18]: 98 | Plant response rating, Nightshade [6, 19]: 98 | Plant response rating, Nightshade [6, 20]: 0 | Plant response rating, Nightshade [6, 21]: 50 | Buckwheat, Wild plant response rating [7, 22]: 65 | Plant response rating, Buckwheat, Wild [7, 23]: 100 | Plant response rating, Buckwheat, Wild [7, 24]: 100 | Plant response rating (scale of 0 to 100), Buckwheat, Wild ([7]; Preemergence): 15 | Plant response rating, Buckwheat, Wild [7, 25]: 5 | Plant response rating, Buckwheat, Wild [7, 26]: 5 | Plant response rating, Buckwheat, Wild [7, 27]: 25 | Plant response rating, Buckwheat, Wild [7, 28]: 95 | Ryegrass, Italian plant response rating [8, 29]: 75 | Plant response rating, Ryegrass, Italian [8, 23]: 90 | Plant response rating, Ryegrass, Italian [8, 24]: 95 | Plant response rating (scale of 0 to 100), Ryegrass, Italian ([8]; Preemergence, 31 g ai/ha): 85 | Plant response rating (scale of 0 to 100), Ryegrass, Italian ([8]; Preemergence, 62 g ai/ha): 90 | Plant response rating, Ryegrass, Italian [8, 26]: 95 | Plant response rating, Ryegrass, Italian [8, 27]: 98 | Plant response rating, Ryegrass, Italian [8, 28]: 85 | Mustard, Wild plant response rating [9, 29]: 5 | Plant response rating, Mustard, Wild [9, 23]: 40 | Plant response rating, Mustard, Wild [9, 24]: 75 | Plant response rating (scale of 0 to 100), Mustard, Wild ([9]; Preemergence, 31 g ai/ha): 10 | Plant response rating (scale of 0 to 100), Mustard, Wild ([9]; Preemergence, 62 g ai/ha): 0 | Plant response rating, Mustard, Wild [9, 26]: 0 | Plant response rating, Mustard, Wild [9, 27]: 20 | Plant response rating, Mustard, Wild [9, 28]: 25

Cc1ccc2ccccc2c1-c1c(OC(=O)OC(C)C)c(C)nn(C)c1=O [Compound 72]
Plant response rating, Crabgrass, Brazil [1, 10]: 40 | Plant response rating, Crabgrass, Brazil [1, 11]: 60 | Plant response rating, Crabgrass, Brazil [1, 12]: 60 | Plant response rating, Crabgrass, Brazil [1, 13]: 90 | Plant response rating, Crabgrass, Brazil [1, 30]: 70 | Plant response rating, Crabgrass, Brazil [1, 15]: 50 | Plant response rating, Crabgrass, Brazil [1, 16]: 50 | Plant response rating, Crabgrass, Brazil [1, 31]: 98 | Plant response rating, Kochia (kochia (Kochia scoparia); [10]): 98 | Plant response rating, Kochia (kochia (Kochia scoparia); [11]): 35 | Plant response rating, Kochia (kochia (Kochia scoparia); [12]): 90 | Plant response rating, Kochia (kochia (Kochia scoparia); [13]): 60 | Plant response rating, Kochia (kochia (Kochia scoparia); [30]): 90 | Plant response rating, Kochia (kochia (Kochia scoparia); [15]): 70 | Plant response rating, Kochia (kochia (Kochia scoparia); [16]): 25 | Plant response rating, Kochia (kochia (Kochia scoparia); [31]): 98 | Plant response rating, Surinam Grass [2, 18]: 40 | Plant response rating, Surinam Grass [2, 19]: 75 | Plant response rating, Surinam Grass [2, 21]: 5 | Plant response rating, Surinam Grass [2, 32]: 90 | Plant response rating, Morningglory [3, 18]: 30 | Plant response rating, Morningglory [3, 19]: 80 | Plant response rating, Morningglory [3, 21]: 20 | Plant response rating, Morningglory [3, 32]: 95 | Plant response rating, Ryegrass, Italian [4, 10]: 80 | Plant response rating, Ryegrass, Italian [4, 11]: 90 | Plant response rating, Ryegrass, Italian [4, 12]: 85 | Plant response rating, Ryegrass, Italian [4, 13]: 100 | Plant response rating, Ryegrass, Italian [4, 30]: 90 | Plant response rating, Ryegrass, Italian [4, 15]: 80 | Plant response rating, Ryegrass, Italian [4, 16]: 90 | Plant response rating, Ryegrass, Italian [4, 31]: 100 | Plant response rating, Crabgrass, Large [5, 18]: 0 | Plant response rating, Crabgrass, Large [5, 19]: 30 | Plant response rating, Crabgrass, Large [5, 21]: 0 | Plant response rating, Crabgrass, Large [5, 32]: 90 | Plant response rating, Nightshade [6, 18]: 80 | Plant response rating, Nightshade [6, 19]: 100 | Plant response rating, Nightshade [6, 21]: 0 | Plant response rating, Nightshade [6, 32]: 100 | Buckwheat, Wild plant response rating [7, 22]: 95 | Plant response rating, Buckwheat, Wild [7, 23]: 100 | Plant response rating, Buckwheat, Wild [7, 24]: 100 | Plant response rating (scale of 0 to 100), Buckwheat, Wild ([7]; Preemergence): 0 | Plant response rating, Buckwheat, Wild [7, 25]: 0 | Plant response rating, Buckwheat, Wild [7, 26]: 15 | Plant response rating, Buckwheat, Wild [7, 27]: 10 | Plant response rating, Buckwheat, Wild [7, 28]: 100 | Ryegrass, Italian plant response rating [8, 29]: 95 | Plant response rating, Ryegrass, Italian [8, 23]: 95 | Plant response rating, Ryegrass, Italian [8, 24]: 100 | Plant response rating (scale of 0 to 100), Ryegrass, Italian ([8]; Preemergence, 31 g ai/ha): 55 | Plant response rating, Ryegrass, Italian [8, 25]: 75 | Plant response rating, Ryegrass, Italian [8, 26]: 100 | Plant response rating, Ryegrass, Italian [8, 27]: 90 | Plant response rating, Ryegrass, Italian [8, 28]: 95 | Mustard, Wild plant response rating [9, 29]: 85 | Plant response rating, Mustard, Wild [9, 23]: 100 | Plant response rating, Mustard, Wild [9, 24]: 100 | Plant response rating (scale of 0 to 100), Mustard, Wild ([9]; Preemergence, 31 g ai/ha): 0 | Plant response rating, Mustard, Wild [9, 25]: 25 | Plant response rating, Mustard, Wild [9, 26]: 60 | Plant response rating, Mustard, Wild [9, 27]: 80 | Plant response rating, Mustard, Wild [9, 28]: 100
